Measured values taken from patent US12490739B2, “Synergistically effective fungicide composition comprising choline phosphonate and at least one additional fungicide” (BELCHIM CROP PROTECTION NV, priority 2019, dated 2025).

Key:
Format in all cases: in vivo
Venturia inaequalis = assay: Example 5 field trials, apple (Malus domestica var. Golden delicious) infected with scab; conditions: 60 g a.c./ha
Plasmopara viticola [1] = assay: Example 6 field trials, Vitis vinifera infected with downy mildew; conditions: 120 g a.c./ha
Sphaerotheca fuliginea = assay: Example 3 field trial, cucumber (Cucumis sativus var. Bosco) infected with powdery mildew, Italy; conditions: 2080 g a.c./ha
Podosphaera leucotricha = assay: Example 13 field trials, apple (Malus domestica var. Gold Rush, var. Morgenduft Dallago) infected with powdery mildew; conditions: 2640 g a.c./ha
Uncinula necator = assay: Example 12 field trial, Vitis vinifera var. Carignan infected with powdery mildew, France; conditions: 2320 g a.c./ha
Plasmopara viticola [2] = assay: Example 7 field trial, Vitis vinifera var. Merlot infected with downy mildew, France; conditions: 130 g a.c./ha

Cc1cc(OC(C)C)ccc1C(=O)C(C)(C)NC(=O)c1sccc1C [ISO, N-[1,1-dimethyl-2-(4-isopropoxy-o-tolyl)-2-oxoethyl]-3-methylthiophene-2-carboxamide]
ISO f.e. (%) (Venturia inaequalis; PESINC, location 1 (France), 6 DA-A4, BBCH 72): 13.3% | ISO f.e. (%) (Venturia inaequalis; PESINC, location 2 (Italy), 4 DA-A11, BBCH 75): 4.1% | ISO f.e. (%) (Venturia inaequalis; PESINC, location 2 (Italy), 6 DA-A9, BBCH 74): 12.1% | ISO f.e. (%) (Venturia inaequalis; PESINC, location 2 (Italy), 6 DA-A13, BBCH 77): 5.5% | ISO f.e. (%) (Venturia inaequalis; PESINC, location 2 (Italy), 7 DA-A6, BBCH 72): 16.8% | ISO f.e. (%) (Venturia inaequalis; PESINC, location 3 (Belgium), 31 DA-A9, BBCH 73): 8.7% | ISO f.e. (%) (Venturia inaequalis; PESINC, location 3 (Belgium), 80 DA-A9, BBCH 73): 2.2% | ISO f.e. (%) (Venturia inaequalis; PESSEV, location 2 (Italy), 4 DA-A11, BBCH 75): 22.6% | ISO f.e. (%) (Venturia inaequalis; PESSEV, location 2 (Italy), 6 DA-A9, BBCH 74): 25.3% | ISO f.e. (%) (Venturia inaequalis; PESSEV, location 2 (Italy), 6 DA-A13, BBCH 77): 27.7% | ISO f.e. (%) (Venturia inaequalis; PESSEV, location 2 (Italy), 7 DA-A6, BBCH 72): 32.9%

CCC(C)(NC(=O)c1cc(Cl)c(C)c(Cl)c1)C(=O)CCl (racemic) [ZOX, (RS)-3,5-dichloro-N-(3-chloro-1-ethyl-1-methyl-2-oxopropyl)-ptoluamide]
ZOX f.e. (%) (Plasmopara viticola [1]; PESINC, location 1 (France, Negrette), 50 bunches, 1 DA-A6, BBCH 69): 73.0% | ZOX f.e. (%) (Plasmopara viticola [1]; PESINC, location 1 (France, Negrette), 50 bunches, 1 DA-A8, BBCH 75): 18.0% | ZOX f.e. (%) (Plasmopara viticola [1]; PESINC, location 1 (France, Negrette), 50 bunches, 16 DA-A9, BBCH 81): 1.0% | ZOX f.e. (%) (Plasmopara viticola [1]; PESINC, location 2 (France, Grenache), 50 bunches, 9 DA-A4, BBCH 71): 10.0% | ZOX f.e. (%) (Plasmopara viticola [1]; PESINC, location 2 (France, Grenache), 50 bunches, 9 DA-A4, BBCH 77): 0.0% | ZOX f.e. (%) (Plasmopara viticola [1]; PESINC, location 2 (France, Grenache), 100 leaves, 6 DA-A5, BBCH 77): 0.0% | ZOX f.e. (%) (Plasmopara viticola [1]; PESINC, location 2 (France, Grenache), 100 leaves, 9 DA-A4, BBCH 71): 22.8% | ZOX f.e. (%) (Plasmopara viticola [1]; PESINC, location 3 (Germany, Mueller-Thurgau), 50 bunches, 11 DA-A4, BBCH 75): 48.8% | ZOX f.e. (%) (Plasmopara viticola [1]; PESINC, location 3 (Germany, Mueller-Thurgau), 100 leaves, 7 DA-A8, BBCH 83): 16.0% | ZOX f.e. (%) (Plasmopara viticola [1]; PESINC, location 3 (Germany, Mueller-Thurgau), 100 leaves, 13 DA-A6, BBCH 83): 18.7% | ZOX f.e. (%) (Plasmopara viticola [1]; PESSEV, location 1 (France, Negrette), 50 bunches, 1 DA-A8, BBCH 75): 75.2% | ZOX f.e. (%) (Plasmopara viticola [1]; PESSEV, location 1 (France, Negrette), 50 bunches, 16 DA-A9, BBCH 81): 51.7% | ZOX f.e. (%) (Plasmopara viticola [1]; PESSEV, location 2 (France, Grenache), 50 bunches, 8 DA-A5, BBCH 77): 21.4% | ZOX f.e. (%) (Plasmopara viticola [1]; PESSEV, location 2 (France, Grenache), 50 bunches, 9 DA-A4, BBCH 71): 81.3% | ZOX f.e. (%) (Plasmopara viticola [1]; PESSEV, location 2 (France, Grenache), 50 bunches, 9 DA-A6, BBCH 79): 1.3% | ZOX f.e. (%) (Plasmopara viticola [1]; PESSEV, location 2 (France, Grenache), 100 leaves, 6 DA-A5, BBCH 77): 15.1% | ZOX f.e. (%) (Plasmopara viticola [1]; PESSEV, location 2 (France, Grenache), 100 leaves, 9 DA-A4, BBCH 71): 67.7% | ZOX f.e. (%) (Plasmopara viticola [1]; PESSEV, location 3 (Germany, Mueller-Thurgau), 50 bunches, 7 DA-A8, BBCH 83): 48.9% | ZOX f.e. (%) (Plasmopara viticola [1]; PESSEV, location 3 (Germany, Mueller-Thurgau), 50 bunches, 11 DA-A4, BBCH 75): 80.2% | ZOX f.e. (%) (Plasmopara viticola [1]; PESSEV, location 3 (Germany, Mueller-Thurgau), 50 bunches, 13 DA-A6, BBCH 83): 49.2% | ZOX f.e. (%) (Plasmopara viticola [1]; PESSEV, location 3 (Germany, Mueller-Thurgau), 100 leaves, 13 DA-A6, BBCH 83): 52.1%

S1SSSSSSS1 [S, sulphur]
S f.e. (%) (Sphaerotheca fuliginea; PESINC curative, 7 DA-A2, BBCH 73): 85.1% | S f.e. (%) (Sphaerotheca fuliginea; PESINC curative, 7 DA-A3, BBCH 76): 87.5% | S f.e. (%) (Sphaerotheca fuliginea; PESINC curative, 7 DA-A4, BBCH 77): 77.5% | S f.e. (%) (Sphaerotheca fuliginea; PESINC curative, 14 DA-A4, BBCH 78): 58.9% | S f.e. (%) (Sphaerotheca fuliginea; PESINC, 7 DA-A2, BBCH 73): 88.1% | S f.e. (%) (Sphaerotheca fuliginea; PESINC, 7 DA-A3, BBCH 76): 95% | S f.e. (%) (Sphaerotheca fuliginea; PESINC, 7 DA-A4, BBCH 77): 85.0% | S f.e. (%) (Sphaerotheca fuliginea; PESINC, 14 DA-A4, BBCH 78): 75.2% | S f.e. (%) (Sphaerotheca fuliginea; PESINC, 21 DA-A4, BBCH 79): 69.7% | S f.e. (%) (Sphaerotheca fuliginea; PESSEV curative, 7 DA-A2, BBCH 73): 93.6% | S f.e. (%) (Sphaerotheca fuliginea; PESSEV curative, 7 DA-A3, BBCH 76): 96% | S f.e. (%) (Sphaerotheca fuliginea; PESSEV curative, 7 DA-A4, BBCH 77): 95% | S f.e. (%) (Sphaerotheca fuliginea; PESSEV curative, 14 DA-A4, BBCH 78): 93.4% | S f.e. (%) (Sphaerotheca fuliginea; PESSEV, 7 DA-A2, BBCH 73): 96.7% | S f.e. (%) (Sphaerotheca fuliginea; PESSEV, 7 DA-A4, BBCH 77): 97.6% | S f.e. (%) (Sphaerotheca fuliginea; PESSEV, 14 DA-A4, BBCH 78): 96.3% | S f.e. (%) (Sphaerotheca fuliginea; PESSEV, 21 DA-A4, BBCH 79): 96.9% | S f.e. (%) (Podosphaera leucotricha; PESINC, location 1 (France), 20 shoots, 7 DA-A5, BBCH 71): 80.0% | S f.e. (%) (Podosphaera leucotricha; PESINC, location 1 (France), 100 leaves, 5 DA-A8, BBCH 74): 88.1% | S f.e. (%) (Podosphaera leucotricha; PESINC, location 1 (France), 100 leaves, 6 DA-A6, BBCH 74): 59.1% | S f.e. (%) (Podosphaera leucotricha; PESINC, location 1 (France), 100 leaves, 15 DA-A8, BBCH 76): 80.7% | S f.e. (%) (Podosphaera leucotricha; PESINC, location 2 (Italy), 5 leaves, 5 DA-A6, BBCH 74): 63.9% | S f.e. (%) (Podosphaera leucotricha; PESINC, location 2 (Italy), 40 shoots, 2 DA-A10, BBCH 74): 62.4% | S f.e. (%) (Podosphaera leucotricha; PESINC, location 2 (Italy), 40 shoots, 6 DA-A5, BBCH 71): 57.8% | S f.e. (%) (Podosphaera leucotricha; PESINC, location 2 (Italy), 40 shoots, 6 DA-A11, BBCH 74): 59.4% | S f.e. (%) (Podosphaera leucotricha; PESSEV, location 1 (France), 100 leaves, 6 DA-A6, BBCH 74): 64.1% | S f.e. (%) (Podosphaera leucotricha; PESSEV, location 1 (France), 100 leaves, 15 DA-A8, BBCH 76): 88.2% | S f.e. (%) (Podosphaera leucotricha; PESSEV, location 2 (Italy), 5 leaves, 2 DA-A10, BBCH 74): 82.1% | S f.e. (%) (Podosphaera leucotricha; PESSEV, location 2 (Italy), 5 leaves, 5 DA-A6, BBCH 74): 72.7% | S f.e. (%) (Podosphaera leucotricha; PESSEV, location 2 (Italy), 5 leaves, 6 DA-A11, BBCH 74): 84.4% | S f.e. (%) (Uncinula necator; PESINC, 50 bunches, 14 DA-A3, BBCH 77): 5.1% | S f.e. (%) (Uncinula necator; PESINC, 50 bunches, 14 DA-A3, BBCH 77, second listing (r34)): 1.2% | S f.e. (%) (Uncinula necator; PESINC, 50 bunches, 14 DA-A5, BBCH 83): 37.6% | S f.e. (%) (Uncinula necator; PESINC, 50 bunches, 14 DA-A5, BBCH 83, second listing (r36)): 0% | S f.e. (%) (Uncinula necator; PESINC, 100 leaves, 14 DA-A3, BBCH 77): 42.8% | S f.e. (%) (Uncinula necator; PESINC, 100 leaves, 14 DA-A3, BBCH 77, second listing (r32)): 6.3% | S f.e. (%) (Uncinula necator; PESSEV, 50 bunches, 14 DA-A3, BBCH 77): 50.8% | S f.e. (%) (Uncinula necator; PESSEV, 50 bunches, 14 DA-A3, BBCH 77, second listing (r28)): 6.0% | S f.e. (%) (Uncinula necator; PESSEV, 50 bunches, 14 DA-A5, BBCH 83): 14.2% | S f.e. (%) (Uncinula necator; PESSEV, 50 bunches, 14 DA-A5, BBCH 83, second listing (r30)): 18.9% | S f.e. (%) (Uncinula necator; PESSEV, 100 leaves, 14 DA-A3, BBCH 77): 18.7% | S f.e. (%) (Uncinula necator; PESSEV, 100 leaves, 14 DA-A3, BBCH 77, second listing (r26)): 13.9%

O=C(NCc1ncc(C(F)(F)F)cc1Cl)c1c(Cl)cccc1Cl [FLU, 2,6-dichloro-N-[[3-chloro-5-(trifluoromethyl)pyridin-2-yl]methyl]benzamide]
FLU f.e. (%) (Plasmopara viticola [2]; PESINC, 50 bunches, 0 DA-A3, BBCH 73): 84.4% | FLU f.e. (%) (Plasmopara viticola [2]; PESINC, 50 bunches, 0 DA-A5, BBCH 77): 37.5% | FLU f.e. (%) (Plasmopara viticola [2]; PESINC, 50 bunches, 9 DA-A6, BBCH 83): 14.5% | FLU f.e. (%) (Plasmopara viticola [2]; PESINC, 100 leaves, 0 DA-A3, BBCH 73): 62.3% | FLU f.e. (%) (Plasmopara viticola [2]; PESINC, 100 leaves, 0 DA-A5, BBCH 77): 47.8% | FLU f.e. (%) (Plasmopara viticola [2]; PESINC, 100 leaves, 9 DA-A6, BBCH 83): 32.2% | FLU f.e. (%) (Plasmopara viticola [2]; PESSEV, 50 bunches, 0 DA-A5, BBCH 77): 83.6% | FLU f.e. (%) (Plasmopara viticola [2]; PESSEV, 50 bunches, 9 DA-A6, BBCH 83): 46.8%
